Measured values: PubChem BioAssay (NCI)
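Step 1: Grow cells in 96-well plates. Step 2: Expose to compound for 48 hours at 5 concentrations. Step 3: Interpolate endpoints linearly; if unreached, use highest concentration. GI50 marks 50% less growth. TGI: concentration producing complete growth inhibition.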

Columns and labels:
Experiment in all cases: NCI-60 cell line screen, 48 h
COLO 205 colon = tested on: COLO 205 colon
LOX IMVI melanoma = tested on: LOX IMVI melanoma
SR leukemia = tested on: SR leukemia
TK-10 renal = tested on: TK-10 renal
SK-MEL-2 melanoma = tested on: SK-MEL-2 melanoma
SF-268 CNS = tested on: SF-268 CNS
MCF7 breast = tested on: MCF7 breast
IGROV1 ovarian = tested on: IGROV1 ovarian
SN12C renal = tested on: SN12C renal
PC-3 prostate = tested on: PC-3 prostate
UACC-62 melanoma = tested on: UACC-62 melanoma
CAKI-1 renal = tested on: CAKI-1 renal
UACC-257 melanoma = tested on: UACC-257 melanoma
SF-539 CNS = tested on: SF-539 CNS
NCI-H460 lung = tested on: NCI-H460 lung
A498 renal = tested on: A498 renal
HCC-2998 colon = tested on: HCC-2998 colon
786-0 renal = tested on: 786-0 renal
HS 578T breast = tested on: HS 578T breast
MOLT-4 leukemia = tested on: MOLT-4 leukemia
T-47D breast = tested on: T-47D breast
MDA-MB-435 = tested on: MDA-MB-435
EKVX NSCLC = tested on: EKVX NSCLC
UO-31 renal = tested on: UO-31 renal
RXF 393 renal = tested on: RXF 393 renal
OVCAR-8 ovarian = tested on: OVCAR-8 ovarian
M14 melanoma = tested on: M14 melanoma
OVCAR-3 ovarian = tested on: OVCAR-3 ovarian
HT29 colon = tested on: HT29 colon
NCI-H23 lung = tested on: NCI-H23 lung
MDA-MB-231 breast = tested on: MDA-MB-231 breast
SNB-19 CNS = tested on: SNB-19 CNS
OVCAR-5 ovarian = tested on: OVCAR-5 ovarian
SK-OV-3 ovarian = tested on: SK-OV-3 ovarian
HL-60(TB) leukemia = tested on: HL-60(TB) leukemia
SK-MEL-5 melanoma = tested on: SK-MEL-5 melanoma
ACHN renal = tested on: ACHN renal
NCI-H522 lung = tested on: NCI-H522 lung
SK-MEL-28 melanoma = tested on: SK-MEL-28 melanoma
K-562 leukemia = tested on: K-562 leukemia
DU-145 prostate = tested on: DU-145 prostate
KM12 colon = tested on: KM12 colon
BT-549 breast = tested on: BT-549 breast
CCRF-CEM leukemia = tested on: CCRF-CEM leukemia
HCT-116 colon = tested on: HCT-116 colon
SF-295 CNS = tested on: SF-295 CNS
HOP-92 NSCLC = tested on: HOP-92 NSCLC
HCT-15 colon = tested on: HCT-15 colon
HOP-62 NSCLC = tested on: HOP-62 NSCLC
SW-620 colon = tested on: SW-620 colon
MALME-3M melanoma = tested on: MALME-3M melanoma
SNB-75 CNS = tested on: SNB-75 CNS
RPMI-8226 leukemia = tested on: RPMI-8226 leukemia
NCI-H226 lung = tested on: NCI-H226 lung
A549 NSCLC = tested on: A549 NSCLC

`CCOC(=O)c1ccc2[nH]c(O)c(C(=Nc3ccc(N(C)C(=O)CN4CCN(C)CC4)cc3)c3ccccc3)c2c1` showed a GI50 (COLO 205 colon) of 275 nM, a TGI (COLO 205 colon) of 1470 nM and a GI50 (LOX IMVI melanoma) of 300 nM. The TGI (LOX IMVI melanoma) was 1410 nM, the GI50 (SR leukemia) was 121 nM and the TGI (SR leukemia) was 901 nM. For the same molecule, the GI50 (TK-10 renal) was 540 nM, the TGI (TK-10 renal) was 3330 nM and the GI50 (SK-MEL-2 melanoma) was 780 nM. It also gave a TGI (SK-MEL-2 melanoma) of 2570 nM, a GI50 (SF-268 CNS) of 413 nM and a TGI (SF-268 CNS) of 2030 nM. It also gave a GI50 (MCF7 breast) of 418 nM, a TGI (MCF7 breast) of 1990 nM and a GI50 (IGROV1 ovarian) of 111 nM. The TGI (IGROV1 ovarian) was 1240 nM, the GI50 (SN12C renal) was 144 nM and the TGI (SN12C renal) was 1540 nM. It also gave a GI50 (PC-3 prostate) of 467 nM, a TGI (PC-3 prostate) of 2370 nM and a GI50 (UACC-62 melanoma) of 1410 nM. For the same molecule, the TGI (UACC-62 melanoma) was 3090 nM, the GI50 (CAKI-1 renal) was 103 nM and the TGI (CAKI-1 renal) was 1160 nM. The GI50 (UACC-257 melanoma) was 1380 nM, the TGI (UACC-257 melanoma) was 3170 nM and the GI50 (SF-539 CNS) was 247 nM. It also gave a TGI (SF-539 CNS) of 979 nM, a GI50 (NCI-H460 lung) of 810 nM and a TGI (NCI-H460 lung) of 2450 nM. For the same molecule, the GI50 (A498 renal) was 162 nM, the TGI (A498 renal) was 1060 nM and the GI50 (HCC-2998 colon) was 655 nM. The TGI (HCC-2998 colon) was 2060 nM, the GI50 (786-0 renal) was 213 nM and the TGI (786-0 renal) was 1780 nM. For the same molecule, the GI50 (HS 578T breast) was 64.4 nM, the TGI (HS 578T breast) was 1010 nM and the GI50 (MOLT-4 leukemia) was 254 nM. The TGI (MOLT-4 leukemia) was 2000 nM, the GI50 (T-47D breast) was 979 nM and the TGI (T-47D breast) was 3310 nM. The GI50 (MDA-MB-435) was 667 nM, the TGI (MDA-MB-435) was 2000 nM and the GI50 (EKVX NSCLC) was 955 nM. The TGI (EKVX NSCLC) was 2740 nM, the GI50 (UO-31 renal) was 323 nM and the TGI (UO-31 renal) was 1560 nM. It also gave a GI50 (RXF 393 renal) of 189 nM, a TGI (RXF 393 renal) of 698 nM and a GI50 (OVCAR-8 ovarian) of 514 nM. It also gave a TGI (OVCAR-8 ovarian) of 2890 nM, a GI50 (M14 melanoma) of 339 nM and a TGI (M14 melanoma) of 1530 nM. It also gave a GI50 (OVCAR-3 ovarian) of 774 nM, a TGI (OVCAR-3 ovarian) of 2300 nM and a GI50 (HT29 colon) of 185 nM. The TGI (HT29 colon) was 8870 nM, the GI50 (NCI-H23 lung) was 467 nM and the TGI (NCI-H23 lung) was 2230 nM. The GI50 (MDA-MB-231 breast) was 222 nM, the TGI (MDA-MB-231 breast) was 1540 nM and the GI50 (SNB-19 CNS) was 743 nM. It also gave a TGI (SNB-19 CNS) of 2100 nM, a GI50 (OVCAR-5 ovarian) of 1350 nM and a TGI (OVCAR-5 ovarian) of 3440 nM. It also gave a GI50 (SK-OV-3 ovarian) of 206 nM, a TGI (SK-OV-3 ovarian) of 1230 nM and a GI50 (HL-60(TB) leukemia) of 356 nM. It also gave a TGI (HL-60(TB) leukemia) of 1150 nM, a GI50 (SK-MEL-5 melanoma) of 426 nM and a TGI (SK-MEL-5 melanoma) of 1580 nM. It also gave a GI50 (ACHN renal) of 356 nM, a TGI (ACHN renal) of 1530 nM and a GI50 (NCI-H522 lung) of 1120 nM. The TGI (NCI-H522 lung) was 3340 nM, the GI50 (SK-MEL-28 melanoma) was 1110 nM and the TGI (SK-MEL-28 melanoma) was 2480 nM. The GI50 (K-562 leukemia) was 62.5 nM, the TGI (K-562 leukemia) was 2040 nM and the GI50 (DU-145 prostate) was 490 nM. The TGI (DU-145 prostate) was 2100 nM, the GI50 (KM12 colon) was 17.2 nM and the TGI (KM12 colon) was 1510 nM. It also gave a GI50 (BT-549 breast) of 1040 nM, a TGI (BT-549 breast) of 2320 nM and a GI50 (CCRF-CEM leukemia) of 416 nM. For the same molecule, the TGI (CCRF-CEM leukemia) was 8650 nM, the GI50 (HCT-116 colon) was 172 nM and the TGI (HCT-116 colon) was 1260 nM. The GI50 (SF-295 CNS) was 894 nM, the TGI (SF-295 CNS) was 2200 nM and the GI50 (HOP-92 NSCLC) was 781 nM. For the same molecule, the TGI (HOP-92 NSCLC) was 2780 nM, the GI50 (HCT-15 colon) was 402 nM and the TGI (HCT-15 colon) was 1810 nM. It also gave a GI50 (HOP-62 NSCLC) of 428 nM, a TGI (HOP-62 NSCLC) of 2180 nM and a GI50 (SW-620 colon) of 346 nM. The TGI (SW-620 colon) was 1620 nM, the GI50 (MALME-3M melanoma) was 454 nM and the TGI (MALME-3M melanoma) was 1840 nM. The GI50 (SNB-75 CNS) was 178 nM, the TGI (SNB-75 CNS) was 2060 nM and the GI50 (RPMI-8226 leukemia) was 598 nM. The TGI (RPMI-8226 leukemia) was 3550 nM, the GI50 (NCI-H226 lung) was 596 nM and the TGI (NCI-H226 lung) was 2400 nM. It also gave a GI50 (A549 NSCLC) of 416 nM and a TGI (A549 NSCLC) of 2730 nM.
